Measured values reported in patent US6375944B1, “Methods and compositions for enhancing the immunostimulatory effect of interleukin-12” (The Wistar Institute of Anatomy and Biology, priority 1998, dated 2002).
Several values for one entry are separate records, joined by “and”; a condition that tells them apart may be missing. Equal values may be shown once.

What was measured:
SCK cells [1] = experiment: SCK.GM cell vaccination followed by SCK tumor cell challenge; assay type: in vivo, A/J mice; conditions: for Effect on SCK.GM-induced protection: mice not treated with rmIL-12, data not shown
Source text: A. Female A/J mice were vaccinated with 10^6 irradiated SCK.GM cells suspended in PBS at 10^7 trypan blue-excluding cells/ml. Cells were irradiated with 6000 rads from a ^137Cs source, and mice were vaccinated with 10^6 cells s.c. (day 0). […] Vaccinated and naive A/J mice were challenged fourteen days after vaccination with 2.5×10^4 trypan blue-excluding SCK cells in the opposite flank to assay for the presence of tumor immunity. Tumorigenesis was scored daily.

SCK cells [2] = experiment: Irradiated wild-type SCK cell vaccination followed by SCK tumor cell challenge; assay type: in vivo, A/J mice; conditions: for mice that developed tumors: given with irradiated SCK cells and rmIL-12, challenged on day 14
Source text: Female A/J mice (8 mice per group) were vaccinated with 10^6 irradiated SCK cells and received either PBS, rmIL-12, rmIL-12+L-NAME or rmIL-12 and D-NAME on days 0-4 and 7-11. Mice were challenged fourteen days after vaccination with 2.5×10^4 SCK cells in the opposite flank. Tumorigenesis was scored daily, as described above.

SCK cells [3] = experiment: Tumor cell rechallenge in mice with established SCK immunity; assay type: in vivo, A/J mice; conditions: for Prevention of rmIL-12 impairment of immune rejection: given with rmIL-12 therapy, established SCK immunity; for mice that developed tumors: rmIL-12 treated mice with established SCK immunity, data not shown
Source text: Thus, L-NAME prevents rmIL-12 suppression of established antitumor immune responses.

SCK tumors = experiment: Antitumor activity of rmIL-12 against SCK tumors (tumorigenesis scored daily); assay type: in vivo, A/J mice
Method: Female A/J mice were injected with 2.5×10^4 SCK cells and either PBS, rmIL-12, rmIL-12+L-NAME or rmIL-12 and D-NAME on days 0-4 and 7-11. Tumorigenesis was scored daily, as described above.

splenocytes = experiment: Mitogen and alloantigen stimulation of splenocytes (3H-thymidine incorporation), whole or adherent/nonadherent cocultures; assay type: cell-based, mice; design: Effect on mitogenesis / inhibition of mitogenic responses: dose or concentration left out as unconfirmed
Method: The mitogen and alloantigen stimulation of splenocytes assay was performed as follows: In vitro mitogenic stimulation of splenocytes with […] Con A or 100 U/ml rmIL-12 was performed as described [Kurzawa, cited above]. Proliferative responses to allogeneic antigens (mixed lymphocyte reaction, MLR) was measured when splenocytes from the mice were stimulated with 10^5 mitomycin treated A/J splenocytes. Splenocyte fractionation was performed by allowing 10^5 splenocytes to adhere for 90 minutes in 96 well plates, after which the nonadherent cells were removed and cocultured with adherent cells from different wells for assay. When added, antibodies (XMG6 for IFNγ, XT22 for TNFα, AE5 for IL-10 and C17.8 for IL-12 ) were used at […] final concentration. After 72 hours exposure to mitogen, cultures were pulsed with 1 μCi^3H-thymidine for 16 hours, cells were harvested and ^3H incorporation was measured by scintillation counting. Supernatants from cultures assayed for IFNγ by radioimmunoassay (RIA) (using antibodies AN18 and XMG6 [Wysocka, M. et al. 1995 Eur. J. Immunol. 25:672] were harvested 24 or 72 hours after stimulation.
A. Splenocytes from rmIL-12- and PBS-treated C57BL/6 mice were fractioned by adherence to 96 well plastic plates for 90 minutes. The cells were reconstituted in various combinations of adherent and nonadherent cells by overlaying nonadherent cells on the adherent cells. These cocultures were then stimulated with either 2.5 μg/ml Con A, 100 U/ml IL-12, or 10^5 mitomycin C treated A/J (H-2A) splenocytes, as described in the mitogen/alloantigen assay of Example 1.
B. Cocultures were established from splenic adherent and nonadherent cells of PBS-treated mice or from the adherent cells of rmIL-12-treated mice and nonadherent cells of PBS-treated mice. Antibodies XMG6 (to IFNγ), XT22 (to TNFα), AE5 (to IL-10) and C17.8 (to IL-12 ) were added to a final concentration of […] in cocultures containing adherent cells from spleen of rmIL-12-treated mice, also according to the assay described in Example 1.
(§1) Cocultures were established from splenic adherent and nonadherent cells of PBS-treated mice or from the adherent cells of rmIL-12-treated mice and nonadherent cells of PBS-treated mice. Antibodies XMG6 (to IFNγ), XT22 (to TNFα), AE5 (to IL-10) and C17.8 (to IL-12) were added to a final concentration of […] in cocultures containing adherent cells from spleen of rmIL-12-treated mice. An inhibitor of inducible nitric oxide synthase (iNOS), L-NMMA (Sigma), was added to cocultures of adherent cells from rmIL-12 treated mice and nonadherent cells from control mice at a final concentration of […]. Alternatively, D-NMMA (Sigma), a noninhibitory isoform of L-NMMA, was added to other cocultures as a control.

NO production = NO production measured as nitrite in stimulated cell supernatants by the Greiss assay; assay type: cell-based; design: dose or concentration left out as unconfirmed; conditions: cocultures of adherent cells from rmIL-12 treated mice and nonadherent control cells; compared to D-NMMA; two independent measurements
Method: as §1
NO production was measured as nitrite concentration in stimulated cell supernatants by the Greiss assay [Green, L. C. et al, Anal. Biochem 126:131 (1982)]. Supernatant (100 μl) was added to 96 well plates; 100 μl of a 1:1 mixture of 1% sulfanilamide dihydrochloride in 2.5% H3PO4 and 0.1% naphthylethylenediamine dihydrochloride in 2.5% H3PO4 was then added to samples. Plates were incubated at room temperature for 10 minutes and A540 was determined using a microplate reader with reference to sodium nitrite standard curves. S-nitroso-N-acetyl-penillamine (SNAP, Sigma), an NO donor, was used as a acellular source of NO and was added to splenocytes from HKB-vaccinated C57BL/6 mice.

[4] = SCK-vaccinated mice, at 28 days, rmIL-12 alone, or L-NAME/D-NAME given with rmIL-12

| Compound | Effect on SCK.GM-induced protection (SCK cells [1]) | level of protection (SCK cells [2]; [4]) [%] | mice that developed tumors (SCK cells [2]) [%] | Prevention of rmIL-12 impairment of immune rejection (SCK cells [3]) | mice that developed tumors (SCK cells [3]) [%] | other results |
| --- | --- | --- | --- | --- | --- | --- |
| COC(=O)[C@H](N)CCCNC(=N)N[N+](=O)[O-] [D-NAME, N^ω-nitro-D-arginine methyl ester] | had no effect | 50 | 75 | not | 75 | mice that developed tumors (SCK cells [1]; SCK.GM vaccinated, given with rmIL-12, challenge 14 days after vaccination): 75% |
| COC(=O)[C@@H](N)CCCNC(=N)N[N+](=O)[O-] [L-NAME, N^ω-nitro-L-arginine methyl ester] | had no effect | 50 | 38 | prevented this impairment of immune rejection | 25 | Prevention of rmIL-12 impairment of SCK.GM vaccine protection (SCK cells [1]; given with rmIL-12 days 0-4 and 7-11, challenge 14 days after vaccination): prevented this impairment; level of protection (SCK cells [2]; SCK-vaccinated, given with rmIL-12, at 14 days): 62%; median days to tumor appearance (SCK tumors; 2.5×10^4 SCK cells, treatment days 0-4 and 7-11, L-NAME given with rmIL-12, 9 days without rmIL-12): 17 days; delay of tumor appearance vs. mice given rmIL-12 alone or with D-NAME (SCK tumors; L-NAME given with rmIL-12): 3 days; Effect on SCK tumorigenesis (SCK tumors; given without rmIL-12, data not shown): had no effect on SCK tumorigenesis; delay of tumor appearance vs. untreated mice (SCK tumors; treatment started on day of SCK cell injection, L-NAME given with rmIL-12): 8 days |
| CNC(=N)NCCC[C@H](N)C(=O)O [L-NMMA, N^G-monomethyl-L-arginine] | – | – | – | – | – | Effect on mitogenesis (splenocytes; cocultures of adherent cells from rmIL-12 treated mice and nonadherent control cells, compared to D-NMMA): restored mitogenesis; reduction of NO levels in the culture supernatant (NO production): 58% and 94% |
| S-nitroso-N-acetyl-penillamine [SNAP, reference compound] | – | – | – | – | – | inhibition of mitogenic responses (splenocytes; splenocytes from HKB-vaccinated C57BL/6 mice, cultures with NO levels as low as): 83-98% |
